# US5019384A, “Immunonodulating compositions and their use” (Massachusetts Institute of Technology, priority 1989, dated 1991)
# “Also recorded” adds a separate entry of the source. Read-outs that look alike come from different tables or passages of the source.
# Key:
# [1] = system: T-cell hybridoma DO-11.10; type: cell-based
# I-A^d = target: T1, I-A^d (Mus musculus, UniProt P01921+P04228); test: Gel filtration binding of 125I-labeled peptide to purified Ia (I-A^d); details: I-A^d; 125I-labeled peptide, 48 hours at room temperature, no inhibitor
# T1 construct: endogenous in cells
# T1 sequence (P04228 24-256): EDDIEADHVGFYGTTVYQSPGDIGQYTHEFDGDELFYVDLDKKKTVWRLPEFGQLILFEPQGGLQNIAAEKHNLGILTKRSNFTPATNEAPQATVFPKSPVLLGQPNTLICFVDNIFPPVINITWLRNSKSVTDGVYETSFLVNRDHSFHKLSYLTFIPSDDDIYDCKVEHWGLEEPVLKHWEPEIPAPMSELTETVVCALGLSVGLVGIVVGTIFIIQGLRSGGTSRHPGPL
# T1 sequence (P01921 28-265): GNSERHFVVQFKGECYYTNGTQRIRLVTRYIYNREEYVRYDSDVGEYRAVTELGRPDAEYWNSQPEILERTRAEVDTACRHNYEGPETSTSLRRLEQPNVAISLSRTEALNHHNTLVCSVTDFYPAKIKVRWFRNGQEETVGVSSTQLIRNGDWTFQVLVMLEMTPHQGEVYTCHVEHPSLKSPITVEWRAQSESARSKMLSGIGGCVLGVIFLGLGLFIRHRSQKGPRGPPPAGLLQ
# Text: (§1) The peptide P12-26 was modified by the addition of a tyrosine residue to the N-terminus to serve as an acceptor for the ^125 I.
# (§2) Ia-molecules were purifed from Nonidet P-40 (NP-40) lysates of A20 (H2^d) or AKTB-1b (H2^k) cells by affinity chromatography using the following monoclonal antibodies: MK-D6 (I-A^d -specific), 10-3-6 (I-A^k -specific) specific) or 14-4-4 (I-E^d/k -specific) coupled to Sepharose 4B beads (Pharmacia Fine Chemicals, Sweden).
# (§3) A gel filtration assay was used for determining the degree of association between immunogenic peptides and Ia. The assay is described in: Buus, S. et al., Proceeding of the National Academy of Sciences, U.S.A. (1986) 83:3968, the teaching of which is incorporated herein by reference. Briefly, 40 μmole of purified Ia in 1 percent NP-40/PBS was mixed with 0.2 μmole of ^125 I-labeled peptide (approximately 200,000 cpm for each experiment) and incubated for 48 hours at room temperature to allow for formation of the Ia-peptide complex. The Ia-peptide complexes were separated from free peptide by gel filtration and the percentage of peptide bound to Ia was calculated as the ratio of the ^125 I-labeled peptide in the void volume to the total ^125 I-labeled peptide recovered.
# T-cell hybridoma 7B7.3 = test: Activation of T-cell hybridoma 7B7.3 measured by IL-2 secretion; type: cell-based, Balb/c mouse; details: for Stimulation of 7B7.3: in the context of I-A^d; for Inhibition of P15-26-dependent 7B7.3 activation: P15-26 as activator, I-A^d context, IL-2 release
# Protocol: (§4) T-cell hybridomas were obtained as described in Guillet et al., Science (1985) 235:865-870: and Lechler et al., J. Exp. Med. (1986) 163:678-696 (particularly references cited therein). The procedure for determining inhibition or activation is described in Guillet et al., supra.
# (§5) The activation of T-cell hybridomas was measured by their ability to secrete IL-2 (T-cell hybridomas (5×10^4) that were incubated with 5×10^4 antigen-presenting cells in wells of a 96-well tissue Costar plate (no. 3596) in 200 μl RPMI complete medium containing the appropriate antigen concentrations). After 24 hrs of culture, supernatant (50 μl) was removed and then assayed for IL-2 content by its ability to maintain the growth of the IL-2 Dependent CTL-L cells: 1 μCi of ^3 H tritiated thymidine was added per well. Six hours later the cells were harvested by an automatic cell harvester (Skartron Inc., Sterling, Va.) and thymidine incorporation measured by scintillation counting.
# The activity of T-cell hybridoma 7B7.3 was measured in the presence of various concentrations of P15-26, either in RPMI 1640 with 10 percent fetal calf serum alone or in the presence of P12-24 20 μM or P12-24 60 μM. A20 B-cell lymphomas (5×10^4 cells/well) were used as antigen presenting cells. After 24 hrs of culture, supernatant (50 μl) was harvested and then assayed for IL-2 concentration by following incorporation of ^3 H thymidine into the IL-2 dependent CTL-L cell line (10^4 cells/well). The indicated values in FIG. 2 represent the arithmetic mean of triplicate samples.
# The following work was carried out to examine the competitive ability of peptides derived from Staphylococcus nuclease (Nase), residues 61-80 (P61-80) and from ovalbumin (Ova), residues 324-336 (P324-336) to inhibit P15-26-dependent activation of the hybridoma 7B7.3. Each of these peptides has been shown in their respective cases to be I-A^d -restricted and to be immunodominant for their respective antigens. Finnegan, A. et al. Journal of Experimental Medicine (1986) 164:897-910: Shimonkevitz, R. et al., Journal of Immunology (1984). 5×10^4 TA3 cells were added to each well. Various concentrations of P15-26 were added with either medium (RPMI 1640 with 10 percent fetal calf serum) alone or 30 μM or Ova (P324-36) of 60 μM of Nase ([…]). A20 B-cell lymphoma (5×10^4 cells/well) was used as antigen presenting cells. 7B7.3 T-cell hybridomas (5×10^4) were then added and cultured for 24 hrs. The level of T-cell stimulation was assayed by determining the IL-2 concentration as indicated in Example II. […] The degree of inhibition is […] upon the ratio of activator to inhibitor in each case.
# T-cell hybridoma 8I = test: Activation of T-cell hybridoma 8I measured by IL-2 secretion; type: cell-based, A/J strain; details: for Stimulation of 8I: in the context of I-E^k
# Protocol: as §4, §5
# 8I (I-E^k -restricted) T-cell hybridomas and TA3 B presenting cells (5×10^4) were cocultured with various concentration of P15-26 and either medium alone or 60 μM of Ova (P324-336) or 60 μM Nase (P61-80) as described above. […] In addition, no other peptides representative of the remainder of the Nase sequence were able to inhibit 7B7.3 activation.
# I-A^k = target: T2, I-A^k (Mus musculus, UniProt P01910+P06343); test: Gel filtration binding of 125I-labeled peptide to purified Ia (I-A^k); details: I-A^k; 125I-labeled peptide, 48 hours at room temperature, no inhibitor
# T2 construct: endogenous in cells
# Text: as §1, §2, §3
# T2 sequence (P01910 24-256): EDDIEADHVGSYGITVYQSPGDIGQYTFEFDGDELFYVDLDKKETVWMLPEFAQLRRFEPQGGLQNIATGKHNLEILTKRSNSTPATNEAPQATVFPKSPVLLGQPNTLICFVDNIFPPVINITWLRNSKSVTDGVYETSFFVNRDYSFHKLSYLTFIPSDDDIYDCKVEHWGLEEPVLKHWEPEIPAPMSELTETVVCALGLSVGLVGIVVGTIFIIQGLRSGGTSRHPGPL
# T2 sequence (P06343 28-263): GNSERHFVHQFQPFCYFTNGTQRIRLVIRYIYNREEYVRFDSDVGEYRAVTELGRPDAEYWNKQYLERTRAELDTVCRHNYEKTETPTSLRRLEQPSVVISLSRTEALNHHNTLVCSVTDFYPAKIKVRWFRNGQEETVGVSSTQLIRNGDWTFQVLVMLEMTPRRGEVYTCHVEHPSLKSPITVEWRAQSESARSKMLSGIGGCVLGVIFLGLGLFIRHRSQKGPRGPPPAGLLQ
Substance,Stimulation of DO-11.10 [1],Stimulation of 7B7.3 (T-cell hybridoma 7B7.3),Stimulation of 8I (T-cell hybridoma 8I),Inhibition of P15-26-dependent 7B7.3 activation (T-cell hybridoma 7B7.3),other results
"P323-339: peptide P323-339 derived from ovalbumin (KISQAVHAAHAEINEAG; UniProt P01012 323-339, looked up, fragment) [reference compound]",responds to,–,–,–,Percent of Peptide Bound (I-A^d): 10.6%
P15-26: peptide which contains amino acid residues 15-26 of cI,–,is stimulated; also recorded: can be stimulated,recognizes the same peptide,–,"EC50 (T-cell hybridoma 7B7.3; 7B7.3 co-cultured with P15-26 and P12-24 at 20 μM, read-out: 50 percent stimulation point of the P15-26 antigen dose response curve): 29.8 ± 2.8 µM; EC50 (T-cell hybridoma 7B7.3; 7B7.3 co-cultured with P15-26 and P12-24 at 60 μM, read-out: 50 percent stimulation point of the P15-26 antigen dose response curve): 70.3 µM; EC50 (T-cell hybridoma 7B7.3; P15-26 cultured with 7B7.3 alone, A20 antigen presenting cells, 24 hrs, IL-2, read-out: 50% stimulation point of the P15-26 antigen dose response curve): 20.7 ± 1.2 µM"
Lysozyme (Hen) (P46-61): lysozyme-derived peptide restricted by I-A^k [reference compound],–,–,–,–,Percent of Peptide Bound (I-A^k): 21.5%
P12-24: homologous peptide which contains residues 12-24 of cI,–,Neither 7B7.3 nor 8I can be stimulated; also recorded: Neither T-cell can be stimulated,Neither 7B7.3 nor 8I can be stimulated; also recorded: Neither T-cell can be stimulated,inhibited activation by P15-26 in a dose-dependent manner; also recorded: inhibition of P15-26-dependent7B7.3 activation was observed; also recorded: inhibit activation by P15-26 in a dose dependent manner,"Effect on 8I activation (IL-2 response) (T-cell hybridoma 8I; I-E^k-restricted hybridoma, P12-24 as competitor): no statistically significant effect; also recorded: had no effect"
"Ova (P324-336): peptide from ovalbumin (Ova), residues 324-336, truncated analog of P323-339 (ISQAVHAAHAEIN; UniProt P01012 324-336, looked up, fragment) [reference compound]",responds less well,–,–,inhibit 7B7.3 activation in a dose-dependent manner,"Effect on 8I activation (T-cell hybridoma 8I; TA3 presenting cells, P15-26 stimulator, competitor peptide 60 μM): without effect"
